{
  "source": "ChEMBL document CHEMBL4800730",
  "about": "(2021)",
  "key": {"[1]": {"biological_target": "Serine/threonine-protein kinase TBK1 (Homo sapiens) (UniProt Q9UHD2)", "experiment": "TBK1 SelectScreen Kinase panel (LifeTechnologies)", "conditions": "Compound concentration 1.0 uM"}, "[2]": {"biological_target": "Protein kinase C beta type (Homo sapiens) (UniProt P05771)", "sequence (P05771 2-671 limits assumed)": "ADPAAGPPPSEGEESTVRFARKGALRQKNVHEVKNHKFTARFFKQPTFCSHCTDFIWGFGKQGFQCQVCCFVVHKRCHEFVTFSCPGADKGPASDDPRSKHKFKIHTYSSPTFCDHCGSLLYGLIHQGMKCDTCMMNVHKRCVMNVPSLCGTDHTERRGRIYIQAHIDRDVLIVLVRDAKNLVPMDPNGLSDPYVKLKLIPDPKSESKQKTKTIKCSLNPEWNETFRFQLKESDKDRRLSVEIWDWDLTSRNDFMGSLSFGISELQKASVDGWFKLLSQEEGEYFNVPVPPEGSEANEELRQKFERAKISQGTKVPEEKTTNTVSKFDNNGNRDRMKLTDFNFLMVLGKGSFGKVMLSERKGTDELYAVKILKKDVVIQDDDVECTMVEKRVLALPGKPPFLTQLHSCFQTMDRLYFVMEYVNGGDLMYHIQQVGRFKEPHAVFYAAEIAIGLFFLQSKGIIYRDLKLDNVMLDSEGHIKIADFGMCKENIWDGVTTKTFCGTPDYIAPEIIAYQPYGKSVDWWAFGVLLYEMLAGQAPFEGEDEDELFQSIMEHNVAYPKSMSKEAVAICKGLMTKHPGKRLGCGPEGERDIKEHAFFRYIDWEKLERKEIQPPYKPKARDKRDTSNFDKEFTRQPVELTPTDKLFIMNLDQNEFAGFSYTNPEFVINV", "experiment": "PRKCB1 (PKC beta I) SelectScreen Kinase panel (LifeTechnologies)", "conditions": "Compound concentration 1.0 uM"}, "[3]": {"biological_target": "Maternal embryonic leucine zipper kinase (Homo sapiens) (UniProt Q14680)", "experiment": "MELK SelectScreen Kinase panel (LifeTechnologies)", "conditions": "Compound concentration 1.0 uM"}, "[4]": {"biological_target": "Ribosomal protein S6 kinase alpha-4 (Homo sapiens) (UniProt O75676)", "experiment": "RPS6KA4 (MSK2) SelectScreen Kinase panel (LifeTechnologies)", "conditions": "Compound concentration 1.0 uM"}, "[5]": {"biological_target": "Serine/threonine-protein kinase mTOR (Homo sapiens) (UniProt P42345)", "experiment": "FRAP1 (mTOR) SelectScreen Kinase panel (LifeTechnologies)", "conditions": "Compound concentration 1.0 uM"}, "[6]": {"biological_target": "PAS domain-containing serine/threonine-protein kinase (Homo sapiens) (UniProt Q96RG2)", "experiment": "PASK SelectScreen Kinase panel (LifeTechnologies)", "conditions": "Compound concentration 1.0 uM"}, "[7]": {"biological_target": "Serine/threonine-protein kinase PAK 4 (Homo sapiens) (UniProt O96013)", "experiment": "PAK4 SelectScreen Kinase panel (LifeTechnologies)", "conditions": "Compound concentration 1.0 uM"}, "[8]": {"test_system": "T47D", "experiment": "CellTiter-Glo luminescent cell viability assay (CTG) with T-47D cells", "type": "functional, cell-based", "conditions": "Homo sapiens"}, "[9]": {"biological_target": "G protein-coupled receptor kinase 5 (Homo sapiens) (UniProt P34947)", "experiment": "GRK5 SelectScreen Kinase panel (LifeTechnologies)", "conditions": "Compound concentration 1.0 uM"}, "[10]": {"biological_target": "G protein-coupled receptor kinase 4 (Homo sapiens) (UniProt P32298)", "experiment": "GRK4 SelectScreen Kinase panel (LifeTechnologies)", "conditions": "Compound concentration 1.0 uM"}, "[11]": {"biological_target": "DNA-dependent protein kinase catalytic subunit (Homo sapiens) (UniProt P78527)", "experiment": "DNA-PK SelectScreen Kinase panel (LifeTechnologies)", "conditions": "Compound concentration 1.0 uM"}, "[12]": {"biological_target": "Protein kinase C alpha type (Homo sapiens) (UniProt P17252)", "experiment": "PRKCA (PKC alpha) SelectScreen Kinase panel (LifeTechnologies)", "conditions": "Compound concentration 1.0 uM"}, "[13]": {"biological_target": "Serine/threonine-protein kinase PLK1 (Homo sapiens) (UniProt P53350)", "experiment": "PLK1 SelectScreen Kinase panel (LifeTechnologies)", "conditions": "Compound concentration 1.0 uM"}, "[14]": {"biological_target": "Serine/threonine-protein kinase PAK 1 (Homo sapiens) (UniProt Q13153)", "experiment": "PAK1 SelectScreen Kinase panel (LifeTechnologies)", "conditions": "Compound concentration 1.0 uM"}, "[15]": {"biological_target": "5-hydroxytryptamine receptor 2B (Homo sapiens) (UniProt P41595)", "conditions": "Compound concentration 10.0 uM"}, "[16]": {"biological_target": "G protein-coupled receptor kinase 6 (Homo sapiens) (UniProt P43250)", "sequence (P43250 whole entry, looked up)": "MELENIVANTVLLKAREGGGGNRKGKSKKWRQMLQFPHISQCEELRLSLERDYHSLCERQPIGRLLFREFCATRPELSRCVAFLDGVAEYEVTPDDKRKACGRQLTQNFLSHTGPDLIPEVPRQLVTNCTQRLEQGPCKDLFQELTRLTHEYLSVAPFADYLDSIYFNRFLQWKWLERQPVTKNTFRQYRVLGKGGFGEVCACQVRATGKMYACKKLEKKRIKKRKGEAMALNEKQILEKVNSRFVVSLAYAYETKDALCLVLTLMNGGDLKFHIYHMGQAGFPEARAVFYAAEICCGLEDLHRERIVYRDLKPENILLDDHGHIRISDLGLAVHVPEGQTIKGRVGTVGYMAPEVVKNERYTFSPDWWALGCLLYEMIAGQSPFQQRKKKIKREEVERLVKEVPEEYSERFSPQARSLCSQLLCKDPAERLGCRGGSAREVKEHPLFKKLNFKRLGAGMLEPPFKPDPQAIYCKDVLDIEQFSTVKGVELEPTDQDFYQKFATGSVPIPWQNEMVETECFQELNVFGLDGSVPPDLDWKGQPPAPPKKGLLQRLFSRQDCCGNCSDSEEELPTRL", "experiment": "GRK6 SelectScreen Kinase panel (LifeTechnologies)", "conditions": "Compound concentration 1.0 uM"}, "[17]": {"biological_target": "5-hydroxytryptamine receptor 1A (Homo sapiens) (UniProt P08908)", "conditions": "Compound concentration 10.0 uM"}, "[18]": {"biological_target": "Focal adhesion kinase 1 (Homo sapiens) (UniProt Q05397)", "experiment": "PTK2 (FAK) SelectScreen Kinase panel (LifeTechnologies)", "conditions": "Compound concentration 1.0 uM"}, "[19]": {"biological_target": "Hepatocyte growth factor receptor (Homo sapiens) (UniProt P08581)", "experiment": "MET (cMet) SelectScreen Kinase panel (LifeTechnologies)", "conditions": "Compound concentration 1.0 uM"}, "[20]": {"biological_target": "Protein kinase C theta type (Homo sapiens) (UniProt Q04759)", "experiment": "PRKCQ (PKC theta) SelectScreen Kinase panel (LifeTechnologies)", "conditions": "Compound concentration 1.0 uM"}, "[21]": {"biological_target": "Serine/threonine-protein kinase 4 (Homo sapiens) (UniProt Q13043)", "sequence (Q13043 whole entry)": "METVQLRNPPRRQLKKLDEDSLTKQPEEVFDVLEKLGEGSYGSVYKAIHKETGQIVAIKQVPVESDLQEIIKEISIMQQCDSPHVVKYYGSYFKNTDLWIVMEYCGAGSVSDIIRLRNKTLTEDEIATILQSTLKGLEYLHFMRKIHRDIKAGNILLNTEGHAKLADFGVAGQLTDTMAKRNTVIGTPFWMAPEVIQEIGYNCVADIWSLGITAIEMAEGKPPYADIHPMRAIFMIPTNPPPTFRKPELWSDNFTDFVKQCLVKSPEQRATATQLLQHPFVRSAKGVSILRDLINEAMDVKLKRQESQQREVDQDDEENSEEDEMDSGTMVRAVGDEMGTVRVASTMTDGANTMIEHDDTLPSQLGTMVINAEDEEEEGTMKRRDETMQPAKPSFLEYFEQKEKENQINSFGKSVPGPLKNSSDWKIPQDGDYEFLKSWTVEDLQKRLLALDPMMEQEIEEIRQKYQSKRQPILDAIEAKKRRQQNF", "experiment": "STK4 (MST1) SelectScreen Kinase panel (LifeTechnologies)", "conditions": "Compound concentration 1.0 uM"}, "[22]": {"biological_target": "Protein kinase C epsilon type (Homo sapiens) (UniProt Q02156)", "experiment": "PRKCE (PKC epsilon) SelectScreen Kinase panel (LifeTechnologies)", "conditions": "Compound concentration 1.0 uM"}, "[23]": {"biological_target": "5-hydroxytryptamine receptor 6 (Homo sapiens) (UniProt P50406)", "conditions": "Compound concentration 10.0 uM"}, "[24]": {"biological_target": "Cyclin-dependent kinase 1/cyclin B (Homo sapiens) (UniProt P06493+P14635+Q8WWL7+O95067)", "experiment": "CDK1/cyclin B SelectScreen Kinase panel (LifeTechnologies)", "type": "protein-complex assay", "conditions": "Compound concentration 1.0 uM"}, "[25]": {"biological_target": "Alpha-1A adrenergic receptor (Homo sapiens, UniProt P35348)", "experiment": "GPCRScan assay: inhibition of Alpha1A", "design": "radioligand conc. used [nm] 0.2 - 1.0, parental cells stable HEK"}, "[26]": {"biological_target": "Receptor tyrosine-protein kinase erbB-2 (Homo sapiens) (UniProt P04626)", "experiment": "ERBB2 (HER2) SelectScreen Kinase panel (LifeTechnologies)", "conditions": "Compound concentration 1.0 uM"}, "[27]": {"test_system": "BT-474", "experiment": "CellTiter-Glo luminescent cell viability assay (CTG) with BT-474 cells", "type": "functional, cell-based", "conditions": "Homo sapiens"}, "[28]": {"biological_target": "5-hydroxytryptamine receptor 1E (Homo sapiens) (UniProt P28566)", "conditions": "Compound concentration 10.0 uM"}, "[29]": {"biological_target": "Protein kinase C iota type (Homo sapiens) (UniProt P41743)", "experiment": "PRKCI (PKC iota) SelectScreen Kinase panel (LifeTechnologies)", "conditions": "Compound concentration 1.0 uM"}, "[30]": {"biological_target": "5-hydroxytryptamine receptor 2A (Homo sapiens) (UniProt P28223)", "sequence (P28223 whole entry)": "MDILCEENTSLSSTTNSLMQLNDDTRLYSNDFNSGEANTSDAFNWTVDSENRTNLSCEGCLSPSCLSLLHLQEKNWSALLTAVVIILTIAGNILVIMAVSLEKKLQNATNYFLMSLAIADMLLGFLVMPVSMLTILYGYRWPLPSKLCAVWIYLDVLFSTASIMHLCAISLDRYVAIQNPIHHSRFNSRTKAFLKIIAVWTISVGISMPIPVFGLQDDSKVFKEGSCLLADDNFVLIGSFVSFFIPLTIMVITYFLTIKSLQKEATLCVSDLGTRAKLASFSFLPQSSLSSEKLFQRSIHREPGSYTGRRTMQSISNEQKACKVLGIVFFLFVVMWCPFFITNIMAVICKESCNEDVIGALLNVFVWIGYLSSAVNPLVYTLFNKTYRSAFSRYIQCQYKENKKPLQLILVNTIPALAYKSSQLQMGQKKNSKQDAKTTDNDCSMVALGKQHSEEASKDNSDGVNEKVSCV", "conditions": "Compound concentration 10.0 uM"}, "[31]": {"experiment": "GPCRScan assay: inhibition of GABA/PBR", "design": "species or system Rattus norvegicus; radioligand conc. used [nm] 0.3 – 2.0, parental cells brain tissue"}, "[32]": {"biological_target": "Alpha-2C adrenergic receptor (Homo sapiens) (UniProt P18825)", "sequence (P18825 whole entry)": "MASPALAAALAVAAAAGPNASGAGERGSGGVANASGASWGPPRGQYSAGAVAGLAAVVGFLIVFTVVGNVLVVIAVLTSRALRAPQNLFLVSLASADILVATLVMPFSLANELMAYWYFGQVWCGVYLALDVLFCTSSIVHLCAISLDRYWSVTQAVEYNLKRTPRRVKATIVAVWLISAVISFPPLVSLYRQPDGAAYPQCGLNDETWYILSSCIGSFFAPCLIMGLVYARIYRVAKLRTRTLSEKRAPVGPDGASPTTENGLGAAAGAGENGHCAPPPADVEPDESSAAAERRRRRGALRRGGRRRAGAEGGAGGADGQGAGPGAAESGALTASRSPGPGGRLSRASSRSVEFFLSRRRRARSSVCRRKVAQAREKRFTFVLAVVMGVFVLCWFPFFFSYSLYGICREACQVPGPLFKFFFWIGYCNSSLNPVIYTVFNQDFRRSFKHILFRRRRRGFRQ", "conditions": "Compound concentration 10.0 uM"}, "[33]": {"biological_target": "Sodium-dependent dopamine transporter (Homo sapiens, UniProt Q01959)", "sequence (Q01959 whole entry)": "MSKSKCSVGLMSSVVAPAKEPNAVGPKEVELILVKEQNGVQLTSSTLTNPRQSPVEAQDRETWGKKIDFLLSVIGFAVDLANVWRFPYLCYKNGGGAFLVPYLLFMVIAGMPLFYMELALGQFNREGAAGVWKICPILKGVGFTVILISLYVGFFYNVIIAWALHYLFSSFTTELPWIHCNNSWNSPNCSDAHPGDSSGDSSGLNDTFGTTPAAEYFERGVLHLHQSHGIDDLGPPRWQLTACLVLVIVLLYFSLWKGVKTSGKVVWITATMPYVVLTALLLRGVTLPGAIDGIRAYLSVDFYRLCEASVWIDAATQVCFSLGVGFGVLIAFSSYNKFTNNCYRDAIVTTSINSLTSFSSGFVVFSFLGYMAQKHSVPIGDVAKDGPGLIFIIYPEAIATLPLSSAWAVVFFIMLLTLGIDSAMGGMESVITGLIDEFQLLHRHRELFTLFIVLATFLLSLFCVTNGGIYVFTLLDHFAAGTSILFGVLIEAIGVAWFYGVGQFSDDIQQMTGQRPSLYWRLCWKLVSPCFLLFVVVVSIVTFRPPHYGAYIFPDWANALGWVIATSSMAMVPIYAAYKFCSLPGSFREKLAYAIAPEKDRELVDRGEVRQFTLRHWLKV", "conditions": "Compound concentration 10.0 uM"}, "[34]": {"biological_target": "Serine/threonine-protein kinase Sgk2 (Homo sapiens) (UniProt Q9HBY8)", "experiment": "SGK2 SelectScreen Kinase panel (LifeTechnologies)", "conditions": "Compound concentration 1.0 uM"}, "[35]": {"biological_target": "Calcium/calmodulin-dependent protein kinase type IV (Homo sapiens) (UniProt Q16566)", "sequence (Q16566 whole entry)": "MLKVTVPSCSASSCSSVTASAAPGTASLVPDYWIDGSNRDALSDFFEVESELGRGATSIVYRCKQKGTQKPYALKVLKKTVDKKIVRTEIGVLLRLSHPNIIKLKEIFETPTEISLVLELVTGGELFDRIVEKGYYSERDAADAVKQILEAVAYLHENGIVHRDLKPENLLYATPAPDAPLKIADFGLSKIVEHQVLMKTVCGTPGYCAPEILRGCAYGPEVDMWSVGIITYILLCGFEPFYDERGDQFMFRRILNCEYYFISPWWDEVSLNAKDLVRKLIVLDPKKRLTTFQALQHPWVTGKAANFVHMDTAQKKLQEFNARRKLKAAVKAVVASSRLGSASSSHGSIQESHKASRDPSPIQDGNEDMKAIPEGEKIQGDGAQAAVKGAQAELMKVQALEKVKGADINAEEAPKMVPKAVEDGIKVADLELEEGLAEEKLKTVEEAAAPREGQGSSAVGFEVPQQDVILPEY", "experiment": "CAMK4 (CaMKIV) SelectScreen Kinase panel (LifeTechnologies)", "conditions": "Compound concentration 1.0 uM"}, "[36]": {"biological_target": "Tyrosine-protein kinase SYK (Homo sapiens) (UniProt P43405)", "experiment": "SYK SelectScreen Kinase panel (LifeTechnologies)", "conditions": "Compound concentration 1.0 uM"}, "[37]": {"biological_target": "Aurora kinase A (Homo sapiens) (UniProt O14965)", "sequence (O14965 whole entry)": "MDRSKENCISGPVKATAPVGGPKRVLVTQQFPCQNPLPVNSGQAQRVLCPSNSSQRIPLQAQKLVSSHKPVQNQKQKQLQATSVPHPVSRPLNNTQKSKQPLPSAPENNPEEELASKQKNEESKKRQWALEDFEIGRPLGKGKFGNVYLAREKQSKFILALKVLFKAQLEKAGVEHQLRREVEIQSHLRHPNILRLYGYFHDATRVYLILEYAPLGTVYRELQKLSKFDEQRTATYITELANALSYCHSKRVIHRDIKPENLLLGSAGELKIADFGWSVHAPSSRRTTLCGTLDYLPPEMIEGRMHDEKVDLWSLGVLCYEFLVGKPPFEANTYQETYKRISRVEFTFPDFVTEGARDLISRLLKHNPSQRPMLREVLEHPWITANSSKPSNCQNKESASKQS", "experiment": "AURKA (Aurora A) SelectScreen Kinase panel (LifeTechnologies)", "conditions": "Compound concentration 1.0 uM"}, "[38]": {"biological_target": "D(1A) dopamine receptor (Homo sapiens) (UniProt P21728)", "conditions": "Compound concentration 10.0 uM"}, "[39]": {"biological_target": "Sodium-dependent noradrenaline transporter (Homo sapiens) (UniProt P23975)", "conditions": "Compound concentration 10.0 uM"}, "[40]": {"biological_target": "D(3) dopamine receptor (Homo sapiens) (UniProt P35462)", "conditions": "Compound concentration 10.0 uM"}, "[41]": {"biological_target": "Protein kinase C gamma type (Homo sapiens) (UniProt P05129)", "experiment": "PRKCG (PKC gamma) SelectScreen Kinase panel (LifeTechnologies)", "conditions": "Compound concentration 1.0 uM"}, "[42]": {"biological_target": "AMPK alpha2/beta1/gamma1 (Homo sapiens) (UniProt P54646+P54619+Q9Y478)", "experiment": "AMPK A2/B1/G1 SelectScreen Kinase panel (LifeTechnologies)", "type": "protein-complex assay", "conditions": "Compound concentration 1.0 uM"}, "[43]": {"biological_target": "Fibroblast growth factor receptor 1 (Homo sapiens) (UniProt P11362)", "experiment": "FGFR1 SelectScreen Kinase panel (LifeTechnologies)", "conditions": "Compound concentration 1.0 uM"}, "[44]": {"biological_target": "cAMP-dependent protein kinase catalytic subunit alpha (Homo sapiens) (UniProt P17612)", "experiment": "PRKACA (PKA) SelectScreen Kinase panel (LifeTechnologies)", "conditions": "Compound concentration 1.0 uM"}, "[45]": {"biological_target": "Sodium-dependent serotonin transporter (Homo sapiens) (UniProt P31645)", "sequence (P31645 whole entry, looked up)": "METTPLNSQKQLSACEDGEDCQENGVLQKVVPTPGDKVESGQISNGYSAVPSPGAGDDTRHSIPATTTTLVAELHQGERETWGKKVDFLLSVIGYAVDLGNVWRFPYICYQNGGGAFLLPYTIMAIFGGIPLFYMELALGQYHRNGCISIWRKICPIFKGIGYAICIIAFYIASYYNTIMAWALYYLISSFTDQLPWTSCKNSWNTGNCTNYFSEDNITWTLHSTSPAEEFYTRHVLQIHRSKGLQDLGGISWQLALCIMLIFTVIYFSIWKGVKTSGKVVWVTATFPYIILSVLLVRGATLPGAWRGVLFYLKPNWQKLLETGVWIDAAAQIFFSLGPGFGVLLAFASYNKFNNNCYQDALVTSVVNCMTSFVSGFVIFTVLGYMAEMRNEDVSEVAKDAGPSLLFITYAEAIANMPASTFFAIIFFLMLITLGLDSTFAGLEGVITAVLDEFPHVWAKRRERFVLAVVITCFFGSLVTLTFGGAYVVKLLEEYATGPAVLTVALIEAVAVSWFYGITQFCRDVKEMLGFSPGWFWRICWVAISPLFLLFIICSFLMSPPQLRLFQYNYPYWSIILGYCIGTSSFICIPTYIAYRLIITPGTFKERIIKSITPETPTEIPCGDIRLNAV", "conditions": "Compound concentration 10.0 uM"}},
  "note": "Activity calls are given as the source filed them. The rule behind the calls is not given here.",
  "data": [
    {"smiles": "C=CC(=O)Nc1ccc2[nH]c(=O)n(C3CCN(Cc4ccc(-c5nc6cc[nH]c(=O)c6cc5-c5ccccc5)cc4)CC3)c2c1", "note": "[Borussertib]", "values": [
      {"measurement": "inhibition", "setting": "[1]", "value": 6, "unit": "%"},
      {"measurement": "inhibition", "setting": "[2]", "value": -7, "unit": "%"},
      {"measurement": "inhibition", "setting": "[3]", "value": 30, "unit": "%"},
      {"measurement": "inhibition", "setting": "[4]", "value": 8, "unit": "%"},
      {"measurement": "inhibition", "setting": "[5]", "value": -9, "unit": "%"},
      {"measurement": "inhibition", "setting": "[6]", "value": 15, "unit": "%"},
      {"measurement": "inhibition", "setting": "[7]", "value": 7, "unit": "%"},
      {"measurement": "EC50", "setting": "[8]", "value": "50 nM (active)"},
      {"measurement": "inhibition", "setting": "[9]", "value": -2, "unit": "%"},
      {"measurement": "inhibition", "setting": "[10]", "value": 8, "unit": "%"},
      {"measurement": "inhibition", "setting": "[11]", "value": 0, "unit": "%"},
      {"measurement": "inhibition", "setting": "[12]", "value": 10, "unit": "%"},
      {"measurement": "inhibition", "setting": "[13]", "value": -3, "unit": "%"},
      {"measurement": "inhibition", "setting": "[14]", "value": -9, "unit": "%"},
      {"measurement": "inhibition", "setting": "[15]", "value": -2.56, "unit": "%"},
      {"measurement": "inhibition", "setting": "[16]", "value": 2, "unit": "%"},
      {"measurement": "inhibition", "setting": "[17]", "value": 15, "unit": "%"},
      {"measurement": "inhibition", "setting": "[18]", "value": 4, "unit": "%"},
      {"measurement": "inhibition", "setting": "[19]", "value": -2, "unit": "%"},
      {"measurement": "inhibition", "setting": "[20]", "value": 35, "unit": "%"},
      {"measurement": "inhibition", "setting": "[21]", "value": -1, "unit": "%"},
      {"measurement": "inhibition", "setting": "[22]", "value": -1, "unit": "%"},
      {"measurement": "inhibition", "setting": "[23]", "value": -3.73, "unit": "%"},
      {"measurement": "inhibition", "setting": "[24]", "value": 3, "unit": "%"},
      {"measurement": "Ki", "setting": "[25]", "value": 2660, "unit": "nM"},
      {"measurement": "inhibition", "setting": "[26]", "value": -3, "unit": "%"},
      {"measurement": "EC50", "setting": "[27]", "value": "370 nM (active)"},
      {"measurement": "inhibition", "setting": "[28]", "value": 18, "unit": "%"},
      {"measurement": "inhibition", "setting": "[29]", "value": 6, "unit": "%"},
      {"measurement": "inhibition", "setting": "[30]", "value": -6.26, "unit": "%"},
      {"measurement": "Ki", "setting": "[31]", "value": 57.3, "unit": "nM"},
      {"measurement": "pKi", "setting": "[31]", "value": 7.24},
      {"measurement": "inhibition", "setting": "[32]", "value": -7.2, "unit": "%"},
      {"measurement": "inhibition", "setting": "[33]", "value": 59.7, "unit": "%"},
      {"measurement": "inhibition", "setting": "[34]", "value": 6, "unit": "%"},
      {"measurement": "inhibition", "setting": "[35]", "value": 12, "unit": "%"},
      {"measurement": "inhibition", "setting": "[36]", "value": -3, "unit": "%"},
      {"measurement": "inhibition", "setting": "[37]", "value": 15, "unit": "%"},
      {"measurement": "inhibition", "setting": "[38]", "value": 19.2, "unit": "%"},
      {"measurement": "inhibition", "setting": "[39]", "value": 4.49, "unit": "%"},
      {"measurement": "inhibition", "setting": "[40]", "value": 20.9, "unit": "%"},
      {"measurement": "inhibition", "setting": "[41]", "value": 17, "unit": "%"},
      {"measurement": "inhibition", "setting": "[42]", "value": 20, "unit": "%"},
      {"measurement": "inhibition", "setting": "[43]", "value": 25, "unit": "%"},
      {"measurement": "inhibition", "setting": "[44]", "value": -3, "unit": "%"},
      {"measurement": "inhibition", "setting": "[45]", "value": 2.16, "unit": "%"}
    ]}
  ]
}
